In patent publication US9951088B2, “D2 receptor modulators and methods of use thereof in the treatment of diseases and disorders” (SUNOVION PHARMACEUTICALS INC., priority 2012, dated 2018):

Assays:
[1] = molecular target: T1, long isoform of human D2 receptor (Homo sapiens, UniProt P14416); assay: Arrestin Agonist Assay (DRD2L PathHunter CHO-K1 cells, β-arrestin recruitment)
Procedure: Cell Lines: Activities of the compounds were assessed using a Chinese Hamster Ovary (CHO—K1) cell line that recombinantly expressed the long isoform of human D2 receptor (DRD2L PathHunter cells). The D2 receptor DNA sequence was modified to contain a “ProLink” at its C-terminus which allowed complementation with an “enzyme acceptor” (EA)-tagged β-arrestin protein. The recruitment of the O-arrestin by the D2 receptor led to complementation of the ProLink and EA and formation of active β-galactosidase which generated a D2-specific signal that was measured.
Arrestin Agonist Assay: One day prior to testing, a vial of high density stock of DRD2L PathHunter cells was thawed, and 1×10^7 cells diluted into 40 mL of growth media (Ham's F12/10% HI FBS/1% PSG). 20 μL cells per well were seeded directly into assay plates, and the plates were allowed to rest for 1 h at RT before incubating in a plate incubator overnight.
5 μL diluted compound was added to cells in each well, and the assay plate was incubated for 90 min at 37° C. 12.5 μL PathHunter detection reagent was added to each well of the assay plate, which was then covered and incubated for 1 h at RT. The plate was read on an Envision reader using the Luminescence protocol, and the data were exported for analysis.
The agonist Emax results were expressed as a percent of the dopamine control response ((measured specific response/control specific agonist response)×100) obtained in the presence of test article. The EC50 values (concentration producing a half-maximal specific response) were determined by non-linear regression analysis of the concentration-response curves.

[2] = molecular target: T1, long isoform of human D2 receptor; assay: cAMP HTRF Agonist Assay (DRD2L PathHunter CHO-K1 cells, forskolin-stimulated)
[3] = molecular target: T1, long isoform of human D2 receptor; assay: Arrestin Antagonist Assay (DRD2L PathHunter CHO-K1 cells, vs EC80 dopamine); conditions: for Emax: CHO-K1, read-out: β-arrestin (antagonist mode) Imax
[4] = CHO-K1, read-out: β-arrestin (agonist mode) Emax
[5] = CHO-K1, read-out: cAMP (agonist mode) Emax
[6] = CHO-K1, read-out: Emax in β-arrestin agonist assay
[7] = CHO-K1, read-out: Emax in cAMP agonist assay

T1 sequence (P14416 whole entry, canonical isoform): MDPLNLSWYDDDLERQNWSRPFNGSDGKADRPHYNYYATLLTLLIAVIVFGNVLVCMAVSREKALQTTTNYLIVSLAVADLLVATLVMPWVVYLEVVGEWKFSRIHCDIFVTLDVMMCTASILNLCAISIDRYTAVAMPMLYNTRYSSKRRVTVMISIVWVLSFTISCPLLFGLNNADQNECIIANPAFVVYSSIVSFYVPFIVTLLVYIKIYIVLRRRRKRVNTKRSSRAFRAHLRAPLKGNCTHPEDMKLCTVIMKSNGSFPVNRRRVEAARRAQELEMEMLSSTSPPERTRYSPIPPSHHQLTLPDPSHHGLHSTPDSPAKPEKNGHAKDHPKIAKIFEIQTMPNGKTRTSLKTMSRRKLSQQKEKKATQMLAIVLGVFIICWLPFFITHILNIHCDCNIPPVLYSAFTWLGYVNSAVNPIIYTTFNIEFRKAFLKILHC

Compound | EC50 [1] | Emax [1, 4] | IC50 [2] | Emax [2, 5] | IC50 [3] | Emax [3] | Emax [1, 6] | Emax [2, 7]
Oc1cccc2ccc(OCCCCN3CCc4sccc4C3)nc12 [Compound 18, 2-(4-(6,7-dihydrothieno[3,2-c]pyridin-5(4H)-yl)butoxy)quinolin-8-ol] | > 10000 nM | < 10% | > 10000 nM | < 10% | 1000 to 10000 nM | > 75% | – | –
O=c1ccc2ccc(OCCCCN3CCc4sccc4C3)nc2[nH]1 [Compound 53, 7-(4-(6,7-dihydrothieno[3,2-c]pyridin-5(4H)-yl)butoxy)-1,8-naphthyridin-2(1H)-one] | > 10000 nM | < 10% | < 10 nM | 10 to 25% | 10 to 100 nM | > 75% | – | –
O=C1CCc2ccc(OCCCCN3CCc4cccc(C(F)(F)F)c4C3)nc2N1 [Compound 79, 7-(4-(8-(trifluoromethyl)-3,4-dihydroisoquinolin-2(1H)-yl)butoxy)-3,4-dihydro-1,8-naphthyridin-2(1H)-one] | > 10000 nM | < 10% | > 10000 nM | < 10% | 100 to 1000 nM | > 75% | – | –
N#Cc1cccnc1N1CCN(CCCCOc2cccc(-c3cc[nH]n3)n2)CC1 [Compound 48, 2-(4-(4-((6-(1H-pyrazol-3-yl)pyridin-2-yl)oxy)butyl)piperazin-1-yl)nicotinonitrile] | < 10 nM | 25 to 50% | < 10 nM | > 75% | 10 to 100 nM | 25 to 50% | – | –
c1ccc2c(N3CCN(CCCCOc4ccc5cn[nH]c5n4)CC3)cccc2c1 [Compound 2, 6-(4-(4-(naphthalen-1-yl)piperazin-1-yl)butoxy)-1H-pyrazolo[3,4-b]pyridine] | 10 to 100 nM | 10 to 25% | 10 to 100 nM | 10 to 25% | 100 to 1000 nM | 50 to 75% | – | –
Cc1cccc(N2CCN(CCCCOc3ccc4cccc(O)c4n3)CC2)c1C [Compound 7, 2-(4-(4-(2,3-dimethylphenyl)piperazin-1-yl)butoxy)quinolin-8-ol] | > 10000 nM | < 10% | 10 to 100 nM | 25 to 50% | 100 to 1000 nM | > 75% | – | –
O=C1NCCc2ccc(OCCCCN3CCc4sccc4C3)nc2N1 [Compound 86, 8-(4-(6,7-dihydrothieno[3,2-c]pyridin-5(4H)-yl)butoxy)-4,5-dihydro-1H-pyrido[2,3-d][1,3]diazepin-2(3H)-one] | > 10000 nM | < 10% | > 10000 nM | < 10% | 10 to 100 nM | > 75% | – | –
CCCOc1cccnc1N1CCN(CCCCOc2ccc3cccc(O)c3n2)CC1 [Compound 11, 2-(4-(4-(3-propoxypyridin-2-yl)piperazin-1-yl)butoxy)quinolin-8-ol] | > 10000 nM | < 10% | > 10000 nM | < 10% | 100 to 1000 nM | > 75% | – | –
Clc1ccccc1N1CCN(CCCCOc2ccc3cn[nH]c3c2)CC1 [Compound 97, 6-(4-(4-(2-chlorophenyl)piperazin-1-yl)butoxy)-1H-indazole] | < 10 nM | 10 to 25% | < 10 nM | 50 to 75% | 10 to 100 nM | 50 to 75% | – | –
O=C1NCCc2ccc(OCCCCN3CCc4nn(-c5ccccn5)cc4C3)nc2N1 [Compound 90, 8-(4-(2-(pyridin-2-yl)-6,7-dihydro-2H-pyrazolo[4,3-c]pyridin-5(4H)-yl)butoxy)-4,5-dihydro-1H-pyrido[2,3-d][1,3]diazepin-2(3H)-one] | 10 to 100 nM | > 75% | < 10 nM | > 75% | > 10000 nM | < 10% | – | –
O=c1ccc2ccc(OCCCCN3CCc4cc(C(F)(F)F)ccc4C3)nc2[nH]1 [Compound 58, 7-(4-(6-(trifluoromethyl)-3,4-dihydroisoquinolin-2(1H)-yl)butoxy)-1,8-naphthyridin-2(1H)-one] | < 10 nM | 10 to 25% | < 10 nM | 25 to 50% | 10 to 100 nM | > 75% | – | –
c1ccc2c(N3CCN(CCCCOc4ccc5cn[nH]c5c4)CC3)cccc2c1 [Compound 92, 6-(4-(4-(naphthalen-1-yl)piperazin-1-yl)butoxy)-1H-indazole] | < 10 nM | 25 to 50% | 10 to 100 nM | 25 to 50% | 10 to 100 nM | 50 to 75% | – | –
O=c1ccc2ccc(OCCCCN3CCc4cc(Cl)ccc4C3)nc2[nH]1 [Compound 59, 7-(4-(6-chloro-3,4-dihydroisoquinolin-2(1H)-yl)butoxy)-1,8-naphthyridin-2(1H)-one] | > 10000 nM | < 10% | < 10 nM | 10 to 25% | < 10 nM | > 75% | – | –
O=C1CCc2ccc(OCCCCN3CCc4nccnc4C3)cc2N1 [Compound 25, 7-(4-(7,8-dihydropyrido[3,4-b]pyrazin-6(5H)-yl)butoxy)-3,4-dihydroquinolin-2(1H)-one] | 100 to 1000 nM | 25 to 50% | 1000 to 10000 nM | 50 to 75% | 1000 to 10000 nM | 25 to 50% | – | –
Oc1cccc2ccc(OCCCCN3CCc4c(Cl)cccc4C3)nc12 [Compound 20, 2-(4-(5-chloro-3,4-dihydroisoquinolin-2(1H)-yl)butoxy)quinolin-8-ol] | 100 to 1000 nM | > 75% | 10 to 100 nM | 50 to 75% | > 10000 nM | < 10% | – | –
Oc1cccc2ccc(OCCCCN3CCN(c4cccc(Cl)c4Cl)CC3)nc12 [Compound 5, 2-(4-(4-(2,3-dichlorophenyl)piperazin-1-yl)butoxy)quinolin-8-ol] | 10 to 100 nM | 10 to 25% | 10 to 100 nM | 25 to 50% | 100 to 1000 nM | > 75% | – | –
Oc1cccc2ccc(OCCCCN3CCc4cc(F)ccc4C3)nc12 [Compound 16, 2-(4-(6-fluoro-3,4-dihydroisoquinolin-2(1H)-yl)butoxy)quinolin-8-ol] | > 10000 nM | < 10% | > 10000 nM | < 10% | 100 to 1000 nM | > 75% | – | –
CCCN[C@H]1CCc2nc(N)sc2C1 [pramipexole, reference compound] | – | – | – | – | – | – | ≥ 90% | ≥ 90%
O=C1CCc2ccc(OCCCCN3CCn4cncc4C3)cc2N1 [Compound 33, 7-(4-(5,6-dihydroimidazo[1,5-a]pyrazin-7(8H)-yl)butoxy)-3,4-dihydroquinolin-2(1H)-one] | > 10000 nM | < 10% | > 10000 nM | < 10% | 1000 to 10000 nM | 50 to 75% | – | –
COc1cccnc1N1CCN(CCCCOc2ccc3cccc(O)c3n2)CC1 [Compound 9, 2-(4-(4-(3-methoxypyridin-2-yl)piperazin-1-yl)butoxy)quinolin-8-ol] | > 10000 nM | < 10% | < 10 nM | 25 to 50% | 10 to 100 nM | > 75% | – | –
Oc1cccc2ccc(OCCCCN3CCc4cc(Cl)ccc4C3)nc12 [Compound 14, 2-(4-(6-chloro-3,4-dihydroisoquinolin-2(1H)-yl)butoxy)quinolin-8-ol] | > 10000 nM | < 10% | > 10000 nM | < 10% | 1000 to 10000 nM | > 75% | – | –
COc1cccnc1N1CCN(CCCCOc2ccc3cn[nH]c3c2)CC1 [Compound 99, 6-(4-(4-(3-methoxypyridin-2-yl)piperazin-1-yl)butoxy)-1H-indazole] | < 10 nM | 10 to 25% | < 10 nM | 25 to 50% | 10 to 100 nM | > 75% | – | –
O=c1ccc2ccc(OCCCCN3CCc4c(cccc4C(F)(F)F)C3)nc2[nH]1 [Compound 61, 7-(4-(5-(trifluoromethyl)-3,4-dihydroisoquinolin-2(1H)-yl)butoxy)-1,8-naphthyridin-2(1H)-one] | 10 to 100 nM | > 75% | < 10 nM | > 75% | > 10000 nM | < 10% | – | –
N#Cc1cccc2c1CN(CCCCOc1ccc3ccc(=O)[nH]c3n1)CC2 [Compound 64, 2-(4-((7-oxo-7,8-dihydro-1,8-naphthyridin-2-yl)oxy)butyl)-1,2,3,4-tetrahydroisoquinoline-8-carbonitrile] | < 10 nM | 10 to 25% | < 10 nM | 25 to 50% | 10 to 100 nM | > 75% | – | –
CCS(=O)(=O)Nc1cccc(OCCCCN2CCc3ccccc3C2)n1 [Compound 43, N-(6-(4-(3,4-dihydroisoquinolin-2(1H)-yl)butoxy)pyridin-2-yl)-ethanesulfonamide] | > 10000 nM | < 10% | > 10000 nM | < 10% | 100 to 1000 nM | > 75% | – | –
Cc1ccccc1N1CCN(CCCCOc2ccc3cn[nH]c3c2)CC1 [Compound 96, 6-(4-(4-(o-tolyl)piperazin-1-yl)butoxy)-1H-indazole] | 10 to 100 nM | 10 to 25% | 10 to 100 nM | 25 to 50% | 100 to 1000 nM | > 75% | – | –
O=C1CCc2ccc(OCCCCN3CCc4nn(-c5ccccc5)cc4C3)nc2N1 [Compound 82, 7-(4-(2-phenyl-6,7-dihydro-2H-pyrazolo[4,3-c]pyridin-5(4H)-yl)butoxy)-3,4-dihydro-1,8-naphthyridin-2(1H)-one] | > 10000 nM | < 10% | > 10000 nM | < 10% | 100 to 1000 nM | > 75% | – | –
CCCN(CCC)CCc1cccc2c1CC(=O)N2 [ropinirole, reference compound] | – | – | – | – | – | – | ≥ 90% | ≥ 90%
